Laboratory results reported in US20160370380A1, “COMBINATORIAL ANTIBODY DIAGNOSTIC” (PharmaSeq, Inc., priority 2015, published 2016).

Columns and labels:
anti-HA antibody [1] = test: HA competitive binding: free peptide in solution competes with […] on MTPs for the anti-HA antibody; conditions: for competitive activity against YPYDVPDYA peptide on MTPs for anti-HA antibody: free peptide with spacer GG in solution, FIG. 3
anti-HA antibody [2] = test: anti-HA antibody binding assay on MTP-bound peptides (fluorescence, SAPE detection)

Substance	competitive activity against YPYDVPDYA peptide on MTPs for anti-HA antibody (anti-HA antibody [1])	assay signal (binding to anti-HA antibody) in screen of random 4-aa peptide library (anti-HA antibody [2]; 5,307 random 4-aa peptides on MTPs, 10 ug/mL biotinylated anti-HA monoclonal antibody, fluorescence at 532 nm)	binding affinity to the anti-HA antibody (conclusion from competition and screen) (anti-HA antibody [1]; taken together from results of FIG. 3 and screen)	recognition by / affinity to anti-HA antibody in HA peptide assay (anti-HA antibody [2]; […], QC control group vial #9, data not shown)
HKRK	no competitive activity	very low binding	–	–
YHYY	competed well	–	high binding affinity	–
YPYDVPDYA	reduced assay signal	–	–	specifically recognized by anti-HA antibody
